Experimental data as given in US8211660B2, “In-vivo monitoring of circulating apoptotic cells” (The General Hospital Corporation, priority 2004, dated 2012).

Test system: MatLyLu mouse prostate cancer cells
Test: Apoptosis of camptothecin-pretreated MatLyLu cells verified by conventional flow cytometry (FITC-annexin V / propidium iodide)
Assay type: cell-based
Conditions: MatLyLu cells pretreated with camptothecin
Procedure: MatLyLu […] prostate cancer cells pretreated with camptothecin were employed as a positive control. It was verified by conventional flow cytometry that more than about 80% of the camptothecin-treated cells undergo apoptosis (i.e. >80% of the treated cells were FITC-annexin V^+ positive and propidium iodide negative). The camptothecin-treated cells were then labeled with the AF647-conjugated annexin-V and injected intravenously into the mouse. The circulating annexin-V^+ cells were measured by focusing a He—Ne laser beam having a wavelength of 633 nm through a slit onto an ear vessel (typically a small artery) and confocally detecting the fluorescent bursts (peaks) as individual cells flowed through the probe beam. The emitted fluorescence was detected by a photomultiplier tube and was digitized for analysis. The confocal detection of the emitted fluorescence allowed continuous monitoring over the measurement period of the labeled cells flowing through the vessel.

CC[C@@]1(O)C(=O)OCc2c1cc1n(c2=O)Cc2cc3ccccc3nc2-1 [camptothecin]
treated cells undergoing apoptosis (FITC-annexin V positive and propidium iodide negative): more than 80%
